Measurements taken from PMC7682835, “A novel G protein-coupled receptor for starfish gonadotropic hormone, relaxin-like gonad-stimulating peptide” (PLoS ONE, 2020).

How the values were obtained:
starfish = conditions: injection of 1-MeAde compared with RGP; cited from earlier work
Excerpt: (§1) Although RGP is the primary mediator of oocyte maturation and ovulation, the effect of RGP is indirect. RGP secreted by radial nerve cords induces ovarian follicle cells to produce 1-methyladenine (1-MeAde) as a maturation-inducing hor ...

[1] = tested on: Patiria pectinifera ovarian follicle cells; test: 1-MeAde production by follicle cells; type: cell-based; conditions: follicle cells (ten million in 1 ml ASW), 2 h at 20°C; 1-MeAde released into medium by biological assay; three independent samples
Description: (§2) Ten million follicle cells were incubated for 2 h at 20°C in 1 ml of ASW in the presence of PpeRGP or AamRGP, with occasional shaking. The cell suspension was then centrifuged at 1,000 g for 1 min and quickly frozen in liquid nitrogen. Supernatants were analyzed for the amount of 1-MeAde released from follicle cells. The concentration of 1-MeAde was determined by a method previously described, using authentic 1-MeAde as the standard reference. The frozen follicle cells were analyzed for the amount of intracellular cAMP using a BIOTRAK cAMP EIA system (GE Healthcare). The mean was determined from three separate assays using three different animals and standard error of the mean (SEM).
(§3) Fig 4 Effect of RGP on 1-MeAde and cAMP production in Patiria pectinifera ovarian follicle cells. (A) Amino acid alignments of A- and B-chains in P. pectinifera (PpeRGP) and Asterias amurensis (AamRGP). To illustrate the conserved features, the amino acid types are color coded according to their properties, with basic residues in blue (Arg, Lys and His), acidic residues in red (Glu and Asp), hydrophobic residues in green (Ala, Val, Ile, Phe, Trp, Tyr, Pro and Met), hydrophilic in black (Ser, Thr, Asn and Gln) and glycine in light blue. The cysteine residues are highlighted in yellow and disulfide bonds are shown with solid dark red lines. […] Intracellular cAMP content was determined by EIA. […]

PpeRGPR = test: Intracellular calcium mobilization (Fluo-8) in Sf9 cells transfected with Gαq16-fused PpeRGPR; type: cell-based, Patiria pectinifera; conditions: for Effect on calcium signaling (result in words): Fluo-8, 490/514 nm
Description: Functional characterization of PpeRGPR was performed using Sf9 cells and baculovirus-based expression methods, as previously reported. The open reading frame (ORF) of human Gαq16 protein (OriGene, Rockville, MD, USA), which couples with GPCRs and triggers intracellular calcium mobilization upon binding of a specific ligand [33] was subcloned into the XbaI site of the pFastbacI plasmid (Invitrogen, Waltham, MA, USA). PpeRGPR was then cloned into the NotI/XbaI site of the Gαq16-ligated pFastbacI plasmids. Transformation of competent cells with the PpeRGPR-Gαq16-pFastbacI plasmid and the resulting bacmid isolation was performed according to the manufacturer’s instructions for the Bac-to-Bac system (Thermo Fisher Scientific, Waltham, MA, USA).
Sf9 cells (Thermo Fisher Scientific) were grown in Sf900 II (Thermo Fisher Scientific) containing 10% FBS (Sigma-Aldrich) at 28°C. PpeRGPR-Gαq16-recombinant baculoviruses were prepared from Sf9 cells transfected with the above bacmids using Cellfectin II (Thermo Fisher Scientific), titrated, isolated, and transiently transfected into Sf9 cells, as previously described. Sf9 cells were plated at 1.2×10^5 cells/well (on a 96-well plate) or 2.4×10^5 cells (on a glass bottom dish) prior to transfection. Forty-eight hours after transfection, Sf9 cells were loaded for 30 min with 2.5 μM of Fluo-8 AM (AAT Bioquest, Sunnyvale, CA, USA) diluted in loading buffer [HBSS supplemented with 1.25 mM probenecid and 0.04% (wt/vol) pluronic F-127] [32]. Cell membrane expression of PpeRGPR-fused human Gαq16 was confirmed by immunostaining using the anti-Gαq16 antibody (OriGene, TA318890) in comparison with non-transfected Sf9 cells (wild type). Dose-dependent responses to PpeRGP or AamRGP were measured using a FlexStation II-automated apparatus (Molecular Devices, San Jose, CA, USA) at the excitation/emission wavelengths of 490/514 nm. Calcium accumulation data were analyzed using Prism v6 (GraphPad Software, San Diego, CA, USA) to fit to a sigmoidal concentration-response curve, as previously described. The dose-response curve was statistically evaluated by analysis of variance. Significant activation of PpeRPGR by PpeRGP compared with AamRGP at each concentration was also examined by Student t test.
Fig 2 Intracellular calcium mobilization in Sf9 cells. (A, B) Sf9 cells were transfected with Gαq16- fused PpeRGPR-recombinant baculovirus (A) and non-transfected Sf9 cells were used as wild type controls (B). Expression of PpeRGPR in Sf9 cells was examined by immunostaining using an anti-Gαq16 antibody. Immunoreactivity was observed using a fluorescence microscope after incubation with an Alexa Fluor 488-conjugated secondary antibody. […] Scale bars represent 50 μm. […] Each dose-response curve was statistically evaluated by analysis of variance. […]

[2] = tested on: Patiria pectinifera ovarian follicle cells; test: Intracellular cAMP production in follicle cells; type: cell-based; conditions: follicle cells (ten million in 1 ml ASW), 2 h at 20°C; intracellular cAMP by EIA; three independent samples
Description: as §2, §3

[3] = tested on: PpeRGPR in P. pectinifera ovarian follicle cells; test: Competitive binding assay, 125I-PpeRGP versus unlabeled RGP, follicle cell homogenates; set-up: species or system Patiria pectinifera; conditions: 2 h at 20°C, four separate assays; for Effect of unlabeled peptide on 125I-PpeRGP binding (result in words): follicle cell homogenates (25 μg of protein), 125I-PpeRGP about 100,000 cpm, final concentration 1.1 pM, total volume 0.5 ml, four animals
Description: Follicle cells were homogenized using a Teflon homogenizer in 25 mM Tris-HCl (pH 7.4) containing 10 mM MgCl2. Protein concentrations were measured using a Bio-Rad protein assay kit (Bio-Rad Laboratories, Hercules, CA, USA).
The radioiodination of PpeRGP with Na^125I (carrier free; GE Healthcare, Buckinghamshire, UK) was carried out at room temperature in accordance with the modified lactoperoxidase method, as described previously. The specific activity of radioiodinated PpeRGP (^125I-PpeRGP) was estimated to be 150 μCi/μg.
The specificity of RGP binding was examined using whole homogenates of follicle cells. Preparations were adjusted to yield a protein concentration of 10 mg/ml with the homogenizing medium plus 0.1% (wt/vol) BSA, and stored at -80°C until use. The binding assay was performed using competition experiments between labeled PpeRGP and unlabeled PpeRGP or AamRGP, as described previously. Data were obtained from four separate assays using follicle cells from ovaries of four different animals.
Fig 3 Competitive inhibition curves of ^125I-PpeRGP binding to Patiria pectinifera ovarian follicle cells in the presence of unlabeled PpeRGP or AamRGP. P. pectinifera ovarian follicle cell homogenates (25 μg of protein) were incubated for 2 h at 20°C in assay buffer containing ^125I-PpeRGP (about 100,000 cpm; 2.087 pg/[…]; total volume 0.5 ml, final concentration 1.1 pM) in the presence of serially diluted unlabeled PpeRGP (●) or AamRGP (○). Specific binding was obtained by subtracting nonspecific binding from total binding. Data were obtained from four separate assays using follicle cells from ovaries of four different animals.

[4] = tested on: males and females of P. pectinifera; conditions: injection of synthetic PpeRGP into males and females with fully-grown testes and ovaries; cited from earlier work
Excerpt: as §1

[5] = tested on: ovarian fragments of P. pectinifera; conditions: synthetic PpeRGP, within 30 min of incubation; cited from earlier work
Excerpt: as §1

P. pectinifera ovaries = conditions: approximately; in vitro spawning; read-out: Median effective concentration of in vitro spawning; cited from earlier work
Excerpt: Since cDNA encoding the PpeRGPR was cloned from P. pectinifera follicle cells (Fig 1), PpeRGPR should be expressed on follicle cell surface. […] In contrast to PpeRGP, AamRGP had no effects on binding to P. pectinifera follicle cells (Fig 3), as well as 1-MeAde and cAMP production (Fig 4B) or calcium signals in PpeRGPR-expressing Sf9 cells (Fig 2C). […] Based on 3D structural models, P^A17 of PpeRGP and R^A18 of AamRGP are located near their respective B-cha ...

[6] = tested on: membrane preparation of ovarian follicle cells of P. pectinifera; conditions: cited from earlier work
[7] = tested on: Patiria pectinifera ovarian follicle cells; conditions: isolated follicle cells cultured with PpeRGP, cited from earlier work
Excerpt: However, the RGP receptor (RGPR) remains to be identified in s ...

[8] = Sf9 cells with Gαq16-fused PpeRGPR, three to seven independent samples

## Cn1cnc2ncnc-2c1N [1-MeAde, 1-methyladenine]
starfish
  Interval preceding the discharge of gametes after injection (result in words): almost equal to those found after injection of RGP

## relaxin-like gonad-stimulating peptide of Asterias amurensis [AamRGP, reference compound]
[1]
  Effect on 1-MeAde production (result in words): no effects
PpeRGPR; [8]
  Effect on calcium signaling (result in words): no effect on calcium signaling
[2]
  Effect on cAMP production (result in words): no effects
[3]
  Effect of unlabeled peptide on 125I-PpeRGP binding (result in words): no effect on ^125I-PpeRGP binding

## relaxin-like gonad-stimulating peptide of Patiria pectinifera [PpeRGP]
[4]
  Spawning behavior and spawning after injection (result in words): spawning behavior and subsequent spawning were observed
[5]
  Induction of oocyte maturation and ovulation (result in words): induced oocyte maturation and ovulation
P. pectinifera ovaries
  EC50: 1 to 2 nM
[6]
  Binding to follicle cell membrane preparation (result in words): binds specifically
PpeRGPR; Sf9 cells transfected with Gαq16-fused PpeRGPR baculovirus, 48 h, Fluo-8 AM 2.5 μM, FlexStation II, 490/514 nm, sigmoidal fit, three to seven independent samples, read-out: EC50, calcium signaling
  EC50: 11.1 nM
PpeRGPR; Sf9 cells with Gαq16-fused PpeRGPR, Fluo-8
  Concentration above which calcium signaling is significantly increased: above 1 nM
PpeRGPR; [8]
  Effect on calcium signaling (result in words): significantly increased calcium signaling at concentrations above 1 nM in a dose-dependent manner
[3]; Scatchard plot analysis, follicle cell homogenates, 125I-PpeRGP, read-out: Dissociation constant (Kd)
  Kd: ~0.67 nM
[3]
  Effect of unlabeled peptide on 125I-PpeRGP binding (result in words): decreased in a dose-dependent manner
[7]; coinciding with cAMP increase
  1-MeAde production in isolated follicle cells (result in words): increase
[7]
  cAMP production in isolated follicle cells (result in words): dose-related increase
